Tested on: Phomopsis longicolla (soy isolate)
Assay: MIC by microdilution, filamentous fungi (CLSI M38-A)
Type: cell-based
Conditions: Diaporthe longicolla, 168 h; Table 13, Phomopsis longicolla- soy, 7 days, 28° C.; read-out: MIC

Question: Which MIC does the source give for `Clc1ccc(COC(Cn2ccnc2)c2ccc(Cl)cc2Cl)c(Cl)c1` (stereo not shown) [Miconazol] here?
Answer: Its MIC is less than 0.125 µg/mL.
